Test results reported in the NIST ThermoML archive (doi:10.1021/je700294p).
± gives the expanded uncertainty stated by the source.

Assays:
[1] = xn = mol fraction of the nth substance listed; details: 101 kPa, Liquid
[2] = excess molar enthalpy (molar enthalpy of mixing); xn = mol fraction of the nth substance listed; details: 101 kPa, Liquid
[3] = 101.33 kPa, Liquid, Vibrating tube method
[4] = refractive index (Na D-line) (dimensionless); details: 101.33 kPa, Liquid, Standard Abbe refractometry

CCCC[n+]1cccc(C)c1.F[B-](F)(F)F [1-butyl-3-methylpyridinium tetrafluoroborate] + CO
Details	excess molar enthalpy [kcal/mol]	mass density [kg/m3]
[1], 298.15 K, x1 = 0.0493	–	873.4 ± 0.8
[1], 298.15 K, x1 = 0.0629	–	893.1 ± 0.8
[1], 298.15 K, x1 = 0.0986	–	934.4 ± 0.7
[1], 298.15 K, x1 = 0.1499	–	979.6 ± 0.5
[1], 298.15 K, x1 = 0.2007	–	1014.7 ± 0.6
[1], 298.15 K, x1 = 0.2956	–	1061.6 ± 0.6
[1], 298.15 K, x1 = 0.4052	–	1098.2 ± 0.7
[1], 298.15 K, x1 = 0.5128	–	1122.8 ± 0.8
[1], 298.15 K, x1 = 0.6009	–	1138.7 ± 0.8
[1], 298.15 K, x1 = 0.6913	–	1151.7 ± 0.8
[1], 298.15 K, x1 = 0.7611	–	1159.7 ± 0.8
[1], 318.15 K, x1 = 0.0557	–	865.7 ± 0.8
[1], 318.15 K, x1 = 0.1052	–	924.3 ± 0.7
[1], 318.15 K, x1 = 0.1493	–	964 ± 0.6
[1], 318.15 K, x1 = 0.2479	–	1025.1 ± 0.5
[1], 318.15 K, x1 = 0.3016	–	1048.4 ± 0.6
[1], 318.15 K, x1 = 0.3944	–	1079.5 ± 0.7
[1], 318.15 K, x1 = 0.497	–	1104.7 ± 0.8
[1], 318.15 K, x1 = 0.5868	–	1121.6 ± 0.8
[1], 318.15 K, x1 = 0.7088	–	1139.8 ± 0.9
[1], 318.15 K, x1 = 0.855	–	1156.2 ± 0.9
[1], 318.15 K, x1 = 0.9465	–	1164.4 ± 1
[2], 298.15 K, x1 = 0.0057	0.0261 ± 0.00167	–
[2], 298.15 K, x1 = 0.0149	0.0545 ± 0.00191	–
[2], 298.15 K, x1 = 0.0279	0.0923 ± 0.00263	–
[2], 298.15 K, x1 = 0.044	0.13 ± 0.00335	–
[2], 298.15 K, x1 = 0.0635	0.167 ± 0.00382	–
[2], 298.15 K, x1 = 0.0842	0.202 ± 0.00454	–
[2], 298.15 K, x1 = 0.1071	0.237 ± 0.00526	–
[2], 298.15 K, x1 = 0.1312	0.271 ± 0.00598	–
[2], 298.15 K, x1 = 0.1585	0.308 ± 0.00669	–
[2], 298.15 K, x1 = 0.1851	0.332 ± 0.00717	–
[2], 298.15 K, x1 = 0.2119	0.359 ± 0.00765	–
[2], 298.15 K, x1 = 0.2357	0.373 ± 0.00789	–
[2], 298.15 K, x1 = 0.2672	0.382 ± 0.00813	–
[2], 298.15 K, x1 = 0.3069	0.386 ± 0.00813	–
[2], 298.15 K, x1 = 0.3541	0.383 ± 0.00813	–
[2], 298.15 K, x1 = 0.41	0.377 ± 0.00813	–
[2], 298.15 K, x1 = 0.4816	0.361 ± 0.00765	–
[2], 298.15 K, x1 = 0.5621	0.33 ± 0.00717	–
[2], 298.15 K, x1 = 0.7167	0.257 ± 0.00574	–
[2], 298.15 K, x1 = 0.7441	0.227 ± 0.00502	–
[2], 298.15 K, x1 = 0.8438	0.158 ± 0.00359	–
[2], 298.15 K, x1 = 0.9196	0.0942 ± 0.00239	–
[2], 298.15 K, x1 = 0.9707	0.0416 ± 0.00143	–
[2], 318.15 K, x1 = 0.0159	0.0588 ± 0.00215	–
[2], 318.15 K, x1 = 0.0352	0.121 ± 0.00311	–
[2], 318.15 K, x1 = 0.0581	0.173 ± 0.00406	–
[2], 318.15 K, x1 = 0.0823	0.224 ± 0.00502	–
[2], 318.15 K, x1 = 0.1098	0.281 ± 0.00621	–
[2], 318.15 K, x1 = 0.1382	0.336 ± 0.00717	–
[2], 318.15 K, x1 = 0.1674	0.39 ± 0.00837	–
[2], 318.15 K, x1 = 0.197	0.43 ± 0.00908	–
[2], 318.15 K, x1 = 0.2147	0.462 ± 0.0098	–
[2], 318.15 K, x1 = 0.2317	0.488 ± 0.0103	–
[2], 318.15 K, x1 = 0.2641	0.512 ± 0.0108	–
[2], 318.15 K, x1 = 0.2984	0.533 ± 0.0112	–
[2], 318.15 K, x1 = 0.3343	0.544 ± 0.0115	–
[2], 318.15 K, x1 = 0.3787	0.548 ± 0.0115	–
[2], 318.15 K, x1 = 0.4391	0.538 ± 0.0112	–
[2], 318.15 K, x1 = 0.5504	0.477 ± 0.01	–
[2], 318.15 K, x1 = 0.6911	0.349 ± 0.00741	–
[2], 318.15 K, x1 = 0.8526	0.191 ± 0.0043	–

CCCC[n+]1cccc(C)c1.F[B-](F)(F)F [1-butyl-3-methylpyridinium tetrafluoroborate] + O
Details	excess molar enthalpy [kcal/mol]	mass density [kg/m3]
[1], 298.15 K, x1 = 0.0182	–	1027.1 ± 0.5
[1], 298.15 K, x1 = 0.0376	–	1050.3 ± 0.5
[1], 298.15 K, x1 = 0.0567	–	1067.1 ± 0.5
[1], 298.15 K, x1 = 0.0995	–	1093.7 ± 0.5
[1], 298.15 K, x1 = 0.1608	–	1116.8 ± 0.5
[1], 298.15 K, x1 = 0.2208	–	1131.4 ± 0.5
[1], 298.15 K, x1 = 0.2975	–	1143.6 ± 0.5
[1], 298.15 K, x1 = 0.3909	–	1154 ± 0.6
[1], 298.15 K, x1 = 0.4861	–	1161.5 ± 0.6
[1], 298.15 K, x1 = 0.5827	–	1167.2 ± 0.7
[1], 298.15 K, x1 = 0.6761	–	1171.8 ± 0.7
[1], 298.15 K, x1 = 0.8091	–	1176.6 ± 0.8
[1], 298.15 K, x1 = 0.8376	–	1177.6 ± 0.8
[1], 298.15 K, x1 = 0.8942	–	1179.4 ± 0.8
[1], 318.15 K, x1 = 0.0466	–	1046.8 ± 0.4
[1], 318.15 K, x1 = 0.1004	–	1080.4 ± 0.4
[1], 318.15 K, x1 = 0.1523	–	1099.8 ± 0.4
[1], 318.15 K, x1 = 0.1991	–	1112.4 ± 0.5
[1], 318.15 K, x1 = 0.251	–	1122.2 ± 0.5
[1], 318.15 K, x1 = 0.3038	–	1130.2 ± 0.5
[1], 318.15 K, x1 = 0.4108	–	1141.5 ± 0.6
[1], 318.15 K, x1 = 0.5062	–	1148.8 ± 0.6
[1], 318.15 K, x1 = 0.5822	–	1153.3 ± 0.6
[1], 318.15 K, x1 = 0.7042	–	1158.9 ± 0.7
[1], 318.15 K, x1 = 0.7551	–	1160.9 ± 0.8
[1], 318.15 K, x1 = 0.7904	–	1162.3 ± 0.8
[1], 318.15 K, x1 = 0.8123	–	1163.2 ± 0.8
[1], 318.15 K, x1 = 0.8988	–	1165.7 ± 0.8
[1], 318.15 K, x1 = 0.918	–	1166.3 ± 0.8
[2], 298.15 K, x1 = 0.006	0.0186 ± 0.00143	–
[2], 298.15 K, x1 = 0.0137	0.0399 ± 0.00167	–
[2], 298.15 K, x1 = 0.0226	0.0636 ± 0.00215	–
[2], 298.15 K, x1 = 0.0328	0.0894 ± 0.00239	–
[2], 298.15 K, x1 = 0.0448	0.117 ± 0.00287	–
[2], 298.15 K, x1 = 0.058	0.146 ± 0.00359	–
[2], 298.15 K, x1 = 0.0724	0.175 ± 0.00406	–
[2], 298.15 K, x1 = 0.0876	0.205 ± 0.00478	–
[2], 298.15 K, x1 = 0.1038	0.235 ± 0.00526	–
[2], 298.15 K, x1 = 0.1204	0.264 ± 0.00574	–
[2], 298.15 K, x1 = 0.1234	0.268 ± 0.00598	–
[2], 298.15 K, x1 = 0.1415	0.298 ± 0.00645	–
[2], 298.15 K, x1 = 0.1713	0.326 ± 0.00693	–
[2], 298.15 K, x1 = 0.1993	0.35 ± 0.00741	–
[2], 298.15 K, x1 = 0.2307	0.372 ± 0.00789	–
[2], 298.15 K, x1 = 0.2676	0.387 ± 0.00813	–
[2], 298.15 K, x1 = 0.3091	0.391 ± 0.00837	–
[2], 298.15 K, x1 = 0.3573	0.383 ± 0.00813	–
[2], 298.15 K, x1 = 0.4051	0.366 ± 0.00789	–
[2], 298.15 K, x1 = 0.4511	0.349 ± 0.00741	–
[2], 298.15 K, x1 = 0.5139	0.318 ± 0.00693	–
[2], 298.15 K, x1 = 0.6139	0.261 ± 0.00574	–
[2], 298.15 K, x1 = 0.7899	0.151 ± 0.00359	–
[2], 318.15 K, x1 = 0.0058	0.0227 ± 0.00167	–
[2], 318.15 K, x1 = 0.0136	0.0519 ± 0.00215	–
[2], 318.15 K, x1 = 0.0231	0.0841 ± 0.00263	–
[2], 318.15 K, x1 = 0.0339	0.116 ± 0.00311	–
[2], 318.15 K, x1 = 0.0459	0.149 ± 0.00359	–
[2], 318.15 K, x1 = 0.0605	0.184 ± 0.0043	–
[2], 318.15 K, x1 = 0.0774	0.222 ± 0.00502	–
[2], 318.15 K, x1 = 0.0961	0.26 ± 0.00574	–
[2], 318.15 K, x1 = 0.1167	0.299 ± 0.00645	–
[2], 318.15 K, x1 = 0.1225	0.306 ± 0.00669	–
[2], 318.15 K, x1 = 0.1348	0.329 ± 0.00717	–
[2], 318.15 K, x1 = 0.1378	0.334 ± 0.00717	–
[2], 318.15 K, x1 = 0.1574	0.369 ± 0.00789	–
[2], 318.15 K, x1 = 0.1845	0.402 ± 0.0086	–
[2], 318.15 K, x1 = 0.2023	0.435 ± 0.00908	–
[2], 318.15 K, x1 = 0.2358	0.464 ± 0.0098	–
[2], 318.15 K, x1 = 0.2685	0.488 ± 0.0103	–
[2], 318.15 K, x1 = 0.3026	0.502 ± 0.0105	–
[2], 318.15 K, x1 = 0.3403	0.513 ± 0.0108	–
[2], 318.15 K, x1 = 0.3889	0.512 ± 0.0108	–
[2], 318.15 K, x1 = 0.4492	0.493 ± 0.0103	–
[2], 318.15 K, x1 = 0.5301	0.453 ± 0.00956	–
[2], 318.15 K, x1 = 0.6433	0.366 ± 0.00789	–
[2], 318.15 K, x1 = 0.8206	0.201 ± 0.00454	–

CCCCO [butan-1-ol]
Details	mass density, [3] [kg/m3]	refractive index, [4]
298.15 K	805.95 ± 0.31	1.3968 ± 0.0005
318.15 K	790.27 ± 0.31	1.39 ± 0.0005

CCO [ethanol]
Details	mass density, [3] [kg/m3]	refractive index, [4]
298.15 K	785.15 ± 0.31	1.36 ± 0.0005
318.15 K	767.57 ± 0.31	1.3548 ± 0.0005

CO [methanol]
Details	mass density, [3] [kg/m3]	refractive index, [4]
298.15 K	786.44 ± 0.31	1.3268 ± 0.0005
318.15 K	768.04 ± 0.31	1.319 ± 0.0005

CCCO [propan-1-ol]
Details	mass density, [3] [kg/m3]	refractive index, [4]
298.15 K	799.7 ± 0.31	1.3831 ± 0.0005
318.15 K	783.16 ± 0.31	1.3757 ± 0.0005
